In patent publication US4055640A, “Compositions and methods for controlling the growth of bacteria, fungi and algae using certain derivatives of N-(2,2-dichlorovinyl)salicylamides” (Nippon Kayaku Co., Ltd., priority 1975, dated 1977):

Tests used:
[1] = tested on: seedling blight of rice plant (pathogen Fusarium sp. and Rhizoctonia sp.); assay: Exterminating test on seedling blight of rice plant (Experimental Example 1); type: in vivo; settings: for Percentage of healthy seedlings at 0.25 g/box: soil, read-out: Percentage of healthy seedlings
Protocol: Exterminating test on seedling blight of rice plant Nursery boxes (60 × 30 × 3 cm) were filled with soil which were contaminated with pathogen (Fusarium sp. and Rhizoctonia sp.) The dust in which the present compound was contained in a ratio of 5% by weight was added in the box in a ratio of 5 grams per box and mixed well with soil. Thereafter, seeds of rice plant (variety: Nihonbare) were sowed in drills at a rate of 0.3 liter per box and grown up in a lighting chamber at 17° C. After 7 days from the sowing, the boxes were carried out in the field. Furthermore, 10 days thereafter the observations were made. Four percent (4%) dust of 3-hydroxy-5-methyl isoxazol (hereinafter referred to as hydroxyisoxazol) on the market was used as a control and tested by the same method. The test results are shown in Table 2 with a "percentage of healthy seedlings". The percentage of healthy seedlings was calculated as follows: […]

[2] = tested on: Fusarium wilt of cucumber; assay: Exterminating test on Fusarium wilt of cucumber (Experimental Example 4); type: in vivo, Fusarium oxysporum f, cucumerinum; settings: 500 ppm, soil drench 100 ml per pot, two weeks; for pest or weed control at 500 ppm: Fusarium, soil, 336 h, read-out: Percentage of healthy seedlings
Protocol: Exterminating test on Fusarium wilt of cucumber Twenty (20) grams of infected soil was added uniformly into each pot which was filled with steam sterilized field soil, then 18 seeds of cucumber (variety; Tokiwazibai) were sowed in each pot. Eighty percent (80%) wettable powder of the present invention was diluted with water to obtain a suspension, and each pot was drenched with the suspension in an amount of 100 ml. Fifty percent (50%) wettable powder of methyl-1-(butylcarbamoyl) 2-benzimidazol carbamate (hereinafter referred to as Benlate) on the market was used as a control and tested by the same method. After two weeks of planting, degrees attacked by the pathogen was observed and a "percentage of healthy seedlings" was calculated as follows: [formula]

[3] = tested on: Rhizoctonia solani (damping-off of cucumber); assay: Exterminating test on damping-off of cucumber (Experimental Example 3); type: in vivo; settings: soil drench 50 ml per pot, 10 days; for pest or weed control at 1000 ppm: Rhizoctonia solani, soil, 240 h, 1,000 ppm, read-out: Percentage of healthy seedlings; for Percentage of healthy seedlings: 1,000 ppm
Protocol: Exterminating test on damping-off of cucumber
The pots (diameter, 12 cm) were filled with field soil and then soil infected by adding Rhizoctonia solani in an amount of 5 grams per pot uniformly into the pots. Thereafter, 10 seeds of cucumber (variety: Azumamidori) were sown in each pot.
Eighty percent (80%) wettable powder of the present invention was diluted with water to obtain a suspension and each pot was drenched with the suspension in an amount of 50 milliliters. Then, the pots were transferred to the greenhouse. Fifty percent (50%) wettable powder of pentachloronitro benzene (hereinafter referred to as PCNB) on the market was used as a control and tested by the same method. After 10 days of the inoculation, degrees attacked by the pathogen were observed and a "Percentage of healthy seedlings" was calculated. The "Percentage of healthy seedlings" was calculated as follows: [formula]

[4] = tested on: Aspergillus niger, Penicillium citrinum, Cladosporium harbarum and chaetomium globosum; assay: Degree of growth inhibition of fungi on treated beach plates (Example 25); type: cell-based; set-up: scale not given here; settings: numerical rating, 2 weeks
Protocol: The emulsifiable concentrates which were prepared by Example 20 were diluted with water 400 times and 800 times to form emulsions.
(§1) The square plates of beach of which a side was 5 cm long and thickness was 5 mm were dipped into the emulsion for 2 minutes and dried for 24 hours at room temperature.
(§2) The square plates were placed on the surface of agar plates. The suspensions which contained spores of Aspergillus niger, Penicillium citrinum, Cladosporium harbarum and chaetomium globosum were respectively sprayed on the agar plates and the square plates.
The test fungi were cultivated in the incubator at the humidity of 95% and the temperature of 28° C for 2 weeks. The degree of growth inhibition is defined in terms of the following numerical ratings.

[5] = tested on: Aspergillus niger, Penicillium citrinum, Cladosporium harbarum and chaetomium globosum; assay: Degree of growth inhibition of fungi on treated beach plates (Example 17); type: cell-based; set-up: scale not given here; settings: numerical rating, 2 weeks
Protocol: The emulsifiable concentrates which were prepared by Example 10 were diluted with water 400 times and 800 times to form emulsions.
as §1, §2
The test fungi were cultivated in the incubator at the humidity of 95% and the temperature of 28° C for 2 weeks.
The degree of growth inhibition is defined in terms of the following numerical ratings.

summer orange seedlings = assay: Phytotoxicity on summer orange seedlings (Experimental Example 6); type: in vivo
Protocol: (§3) Exterminating test on citrus canker. 4-year-old summer orange seedlings, planted in unglazed pots having a diameter of 20 cm, were employed in this test. Eighty percent (80%) wettable powder of the present invention was diluted with water, and sprayed over the seedlings in an amount of 50 ml per pot. The leaves of the seedlings were inoculated Xanthomonas citri by means of a needle. After the inoculation, the seedlings were maintained in a moist chamber at 25° C for 24 hours. Then the pots were transferred into the greenhouse. Streptomycin 20% wettable powder was used as a control, and tested by the same method. After 2 weeks after the inoculation, degrees of disease attack were observed, and an "Effect Index" was calculated as follows: [formula]

[6] = tested on: Xanthomonas citri (citrus canker); assay: Exterminating test on citrus canker (Experimental Example 6); type: in vivo; settings: for pest or weed control at 1000 ppm: read-out: Effect Index, 1,000 ppm, 2 weeks after inoculation
Protocol: as §3

[7] = tested on: Cladosporium cucumerinum (cucumber scab); assay: Exterminating test on cucumber scab (Experimental Example 2); type: in vivo; set-up: scale not given here; settings: 5 days after inoculation
Protocol: Exterminating test on cucumber scab
(§4) The cucumber seeds (variety: Sagamihanjiro) were sown in pots (diameter 18 cm). Eighty percent (80%) wettable powder (contents of active compound: 80%) of the present invention was diluted with water to obtain a suspension. The suspension was sprayed over the cucumber seedlings of the stage of 3-4 leaves in an amount of 20 ml per pot. After 24 hours, these pots were inoculated by means of spray of spore suspension of Cladosporium cucumerinum. The thus-inoculated seedlings were placed in a moist chamber at 20° C for 24 hours. The pots were continuously kept in a greenhouse at 20° C. The following wettable powders on the market were used as controls.
70% wettable powder of 1,2-bis (3-methoxy carbonyl-2-thioureid) benzene (hereinafter referred to as "thiophanate methyl") on the market.
75% wettable powder of ethylene bis (dithiocarbamic acid) manganese (hereinafter referred to as "maneb") on the market. After 5 days of the inoculation, degrees attached by the pathogen were observed and the results were shown in Table 3 with an "Infected Index". The "Infected Index" was calculated as follows: [formula] A : Number of leaves which were killed by hard attack B : Number of leaves severely attacked
C : number of leaves slightly attacked
D : number of healthy leaves

[8] = tested on: cucumber seedlings (variety: Sagamihanjiro); assay: Phytotoxicity on cucumber seedlings (Experimental Example 2); type: in vivo
Protocol: as §4

[9] = 408 h, 0.25g/box a.i., 5% dust mixed with soil

Structure (SMILES) | Percentage of healthy seedlings at 0.25 g/box [1, 9] [%] | pest or weed control at 500 ppm [2] [%] | pest or weed control at 1000 ppm [3] [%] | also measured
CCCCCCCCCCCC(=O)Oc1ccccc1C(=O)NC=C(Cl)Cl [compound 12] | 65 | 53.4 | 70 | 
CC(=O)Oc1c(Cl)cc(Cl)cc1C(=O)NC=C(Cl)Cl [compound 32] | 69.8 | 73 | 75 | 
CC(=O)Oc1ccc(Br)cc1C(=O)NC=C(Cl)Cl [compound 8] | 71.3 | 73.3 | 75 | Degree of growth inhibition ([4]; 0.0125 %): 3; Degree of growth inhibition ([4]; 0.025 %): 3
O=C(NC=C(Cl)Cl)c1cccc([N+](=O)[O-])c1O [compound 31] | 70.2 | 46 | 85 | 
O=C(NC=C(Cl)Cl)c1cc(Br)ccc1[O-].O=C(NC=C(Cl)Cl)c1cc(Br)ccc1[O-].[Cu+2] [compound 27] |  |  |  | Percentage of healthy seedlings [2]: 58.0%; Percentage of healthy seedlings [3]: 85%
O=C(NC=C(Cl)Cl)c1ccccc1[O-].O=C(NC=C(Cl)Cl)c1ccccc1[O-].[Mn+2] [compound 28] |  |  |  | Percentage of healthy seedlings ([1]; 0.25g/box a.i., 5% dust mixed with soil): 73.0%; Percentage of healthy seedlings [2]: 57.0%; Degree of growth inhibition ([5]; 0.0125 %): 3; Degree of growth inhibition ([5]; 0.025 %): 3; Phytotoxicity (summer orange seedlings; 1,000 ppm): Nil; Effect Index ([6]; 1,000 ppm, 2 weeks after inoculation): 73.6; Percentage of healthy seedlings [3]: 100%
COC(=O)Oc1ccccc1C(=O)NC=C(Cl)Cl [Compound No. 16, O-methoxycarbonyl-N-(2,2-dichlorovinyl) salicylamide] | 71.5 | 38.2 | 100 | 
[H]/N=C(/N)N[C@H]1[C@H](O)[C@@H](O)[C@H](O[C@@H]2O[C@@H](C)[C@](O)(C=O)[C@H]2O[C@@H]2O[C@@H](CO)[C@H](O)[C@@H](O)[C@@H]2NC)[C@@H](N/C(N)=N\[H])[C@@H]1O [Streptomycin, reference compound] |  |  |  | Phytotoxicity (summer orange seedlings; 200 ppm): Nil; pest or weed control at 200 ppm ([6]; Xanthomonas citri, 336 h, read-out: Effect Index, 200 ppm, 2 weeks after inoculation): 28.7%
COc1ccccc1C(=O)NC=C(Cl)Cl [compound 15] | 70.2 | 51.2 | 60 | Infected Index ([7]; 500 ppm): 8.9; Phytotoxicity ([8]; 500 ppm): Nil
CC(C)COC(=O)Oc1ccccc1C(=O)NC=C(Cl)Cl [compound 18] | 72.1 | 42 | 100 | Degree of growth inhibition ([4]; 0.0125 %): 2; Degree of growth inhibition ([4]; 0.025 %): 3
Cc1ccc(C(=O)NC=C(Cl)Cl)c(O)c1 [compound 5] | 62 | 58.9 | 80 | Infected Index ([7]; 500 ppm): 10.7; Phytotoxicity ([8]; 500 ppm): Nil; Phytotoxicity (summer orange seedlings; 1,000 ppm): Nil; pest or weed control at 1000 ppm ([6]; Xanthomonas citri, 336 h): 98.2%
O=C(NC=C(Cl)Cl)c1cc(Br)ccc1O [compound 3] | 65.3 | 62.4 | 70 | Phytotoxicity (summer orange seedlings; 1,000 ppm): Nil
CC(=O)Oc1c(C(=O)NC=C(Cl)Cl)cccc1[N+](=O)[O-] [compound 35] | 71.2 | 79 | 95 | 
O=C(NC=C(Cl)Cl)c1cc(Cl)cc(Cl)c1O [compound 33] | 70.4 | 48 |  | 
O=C(NC=C(Cl)Cl)c1cc(Br)ccc1O [compound 22] |  |  |  | Phytotoxicity (summer orange seedlings; 1,000 ppm): Nil
S=C([S-])NCCNC(=S)[S-].[Mn+2] [Maneb, ethylene bis (dithiocarbamic acid) manganese, reference compound] |  |  |  | Infected Index ([7]; 1,500 ppm): 12.5; Phytotoxicity ([8]; 1,500 ppm): Nil
Cc1cc(O)no1 [Hydroxyisoxazol, 3-hydroxy-5-methyl isoxazol, reference compound] |  |  |  | Percentage of healthy seedlings at 0.2 g/box ([1]; 408 h, 0.20g/box a.i., 4% dust on the market (control)): 70.6%
O=C(NC=C(Cl)Cl)c1ccccc1OC(=O)C(Cl)Cl [compound 14] | 70.8 | 62.8 | 95 | Infected Index ([7]; 500 ppm): 7.9; Phytotoxicity ([8]; 500 ppm): Nil; Phytotoxicity (summer orange seedlings; 1,000 ppm): Nil; pest or weed control at 1000 ppm ([6]; Xanthomonas citri, 336 h): 73.2%
Cc1cccc(C(=O)NC=C(Cl)Cl)c1O [compound 4] | 76.6 | 68.7 | 90 | 
